Measured values as given in ChEMBL document CHEMBL3885861, “Open TG-GATES”.

Species: Rattus norvegicus
Assay: Open TG-GATES - Regimen: Daily Repeat
Format: toxicity, organism-based, Sprague-Dawley
Parameters: regimen Daily Repeat, gender Male, age 6 weeks
Details: in vivo, po, 2 mg/kg, route gavage, dose level Middle; for APTT / Bas / Eos / Fbg / Hb / Ht / Lym / MCH / MCHC / MCV / Mono / Neu / PT / Plat / RBC / Ret / WBC: tissue Blood; for KIDNEY_L / KIDNEY_R / KIDNEY_TOTAL: tissue Kidney; for LIVER: tissue Liver; for A/G / ALP / ALT / AST / BUN / CRE / Ca / Cl / DBIL / GLC / IP / K / LDH / Na / PL / RALB / TBIL / TC / TG / TP / gamma-GTP: tissue Plasma

O=NN(CCCl)C(=O)NC1CCCCC1 [LOMUSTINE]
TERMINAL_BW (72 h, time 3 day): 220 g
APTT (72 h, time 3 day): 16.8 s
Bas (72 h, time 3 day): 0%
Eos (72 h, time 3 day): 0.8%
Fbg (72 h, time 3 day): 231.8 mg/dL
Hb (72 h, time 3 day): 13.3 g/dL
Ht (72 h, time 3 day): 39.9%
Lym (72 h, time 3 day): 82.4%
MCH (72 h, time 3 day): 21.1 pg
MCHC (72 h, time 3 day): 33.2%
MCV (72 h, time 3 day): 63.7 fL
Mono (72 h, time 3 day): 7.4%
Neu (72 h, time 3 day): 9.6%
PT (72 h, time 3 day): 11.7 s
Plat (72 h, time 3 day): 108 x10_4/uL
RBC (72 h, time 3 day): 628 x10_4/ul
Ret (72 h, time 3 day): 6.9%
WBC (72 h, time 3 day): 109.9 x10_2/uL
KIDNEY_L (72 h, time 3 day): 1 g
KIDNEY_R (72 h, time 3 day): 1 g
KIDNEY_TOTAL (72 h, time 3 day): 2 g
LIVER (72 h, time 3 day): 11.4 g
A/G (72 h, time 3 day): 2
ALP (72 h, time 3 day): 962.6 IU/L
ALT (72 h, time 3 day): 29.8 IU/L
AST (72 h, time 3 day): 59.4 IU/L
BUN (72 h, time 3 day): 17 mg/dL
CRE (72 h, time 3 day): 0.4 mg/dL
Ca (72 h, time 3 day): 11 mg/dL
Cl (72 h, time 3 day): 105.8 meq/L
DBIL (72 h, time 3 day): 0.01 mg/dL
GLC (72 h, time 3 day): 186.2 mg/dL
IP (72 h, time 3 day): 7.9 mg/dL
K (72 h, time 3 day): 4.7 meq/L
LDH (72 h, time 3 day): 84 IU/L
Na (72 h, time 3 day): 139.4 meq/L
PL (72 h, time 3 day): 152.8 mg/dL
RALB (72 h, time 3 day): 4 g/dL
TBIL (72 h, time 3 day): 0.4 mg/dL
TC (72 h, time 3 day): 83.2 mg/dL
TG (72 h, time 3 day): 100.8 mg/dL
TP (72 h, time 3 day): 5.9 g/dL
gamma-GTP (72 h, time 3 day): 1.4 IU/L
TERMINAL_BW ([…], time 7 day): 246.4 g
TERMINAL_BW ([…], time 14 day): 298.5 g
TERMINAL_BW ([…], time 28 day): 364.6 g
APTT ([…], time 7 day): 15.6 s
Bas ([…], time 7 day): 0%
Eos ([…], time 7 day): 1%
Fbg ([…], time 7 day): 246.8 mg/dL
Hb ([…], time 7 day): 13.9 g/dL
Ht ([…], time 7 day): 42%
Lym ([…], time 7 day): 80%
MCH ([…], time 7 day): 21 pg
MCHC ([…], time 7 day): 33.3%
MCV ([…], time 7 day): 63.2 fL
Mono ([…], time 7 day): 7.4%
Neu ([…], time 7 day): 11.6%
PT ([…], time 7 day): 11.4 s
Plat ([…], time 7 day): 98.8 x10_4/uL
RBC ([…], time 7 day): 664.2 x10_4/ul
Ret ([…], time 7 day): 5.1%
WBC ([…], time 7 day): 103.8 x10_2/uL
APTT ([…], time 14 day): 16.4 s
Bas ([…], time 14 day): 0%
Eos ([…], time 14 day): 0.6%
Fbg ([…], time 14 day): 228.4 mg/dL
Hb ([…], time 14 day): 14.3 g/dL
Ht ([…], time 14 day): 42.9%
Lym ([…], time 14 day): 81.8%
MCH ([…], time 14 day): 20.3 pg
MCHC ([…], time 14 day): 33.2%
MCV ([…], time 14 day): 61.2 fL
Mono ([…], time 14 day): 5.8%
Neu ([…], time 14 day): 11.8%
PT ([…], time 14 day): 11.4 s
Plat ([…], time 14 day): 129.2 x10_4/uL
RBC ([…], time 14 day): 701.8 x10_4/ul
Ret ([…], time 14 day): 4.3%
WBC ([…], time 14 day): 127.6 x10_2/uL
APTT ([…], time 28 day): 16 s
Bas ([…], time 28 day): 0%
Eos ([…], time 28 day): 1%
Fbg ([…], time 28 day): 230.4 mg/dL
Hb ([…], time 28 day): 14.9 g/dL
Ht ([…], time 28 day): 44.4%
Lym ([…], time 28 day): 80%
MCH ([…], time 28 day): 19 pg
MCHC ([…], time 28 day): 33.5%
MCV ([…], time 28 day): 56.9 fL
Mono ([…], time 28 day): 7.6%
Neu ([…], time 28 day): 11.6%
PT ([…], time 28 day): 11.3 s
Plat ([…], time 28 day): 113.9 x10_4/uL
RBC ([…], time 28 day): 780.6 x10_4/ul
Ret ([…], time 28 day): 2.5%
WBC ([…], time 28 day): 145.6 x10_2/uL
KIDNEY_L ([…], time 7 day): 1 g
KIDNEY_R ([…], time 7 day): 1 g
KIDNEY_TOTAL ([…], time 7 day): 2 g
KIDNEY_L ([…], time 14 day): 1.2 g
KIDNEY_R ([…], time 14 day): 1.2 g
KIDNEY_TOTAL ([…], time 14 day): 2.5 g
KIDNEY_L ([…], time 28 day): 1.4 g
KIDNEY_R ([…], time 28 day): 1.4 g
KIDNEY_TOTAL ([…], time 28 day): 2.7 g
LIVER ([…], time 7 day): 13 g
LIVER ([…], time 14 day): 14.1 g
LIVER ([…], time 28 day): 16.6 g
A/G ([…], time 7 day): 1.7
ALP ([…], time 7 day): 976.4 IU/L
ALT ([…], time 7 day): 47.2 IU/L
AST ([…], time 7 day): 85.8 IU/L
BUN ([…], time 7 day): 19.6 mg/dL
CRE ([…], time 7 day): 0.4 mg/dL
Ca ([…], time 7 day): 11.2 mg/dL
Cl ([…], time 7 day): 105.8 meq/L
DBIL ([…], time 7 day): 0.016 mg/dL
GLC ([…], time 7 day): 181.8 mg/dL
IP ([…], time 7 day): 7.7 mg/dL
K ([…], time 7 day): 4.6 meq/L
LDH ([…], time 7 day): 87 IU/L
Na ([…], time 7 day): 139.8 meq/L
PL ([…], time 7 day): 169.6 mg/dL
RALB ([…], time 7 day): 3.8 g/dL
TBIL ([…], time 7 day): 0.3 mg/dL
TC ([…], time 7 day): 98.8 mg/dL
TG ([…], time 7 day): 95.6 mg/dL
TP ([…], time 7 day): 6.1 g/dL
gamma-GTP ([…], time 7 day): 2.2 IU/L
A/G ([…], time 14 day): 2.1
ALP ([…], time 14 day): 822.6 IU/L
ALT ([…], time 14 day): 36.2 IU/L
AST ([…], time 14 day): 66.8 IU/L
BUN ([…], time 14 day): 17.4 mg/dL
CRE ([…], time 14 day): 0.5 mg/dL
Ca ([…], time 14 day): 11.4 mg/dL
Cl ([…], time 14 day): 106.4 meq/L
DBIL ([…], time 14 day): 0.032 mg/dL
GLC ([…], time 14 day): 183.8 mg/dL
IP ([…], time 14 day): 7.3 mg/dL
K ([…], time 14 day): 4.6 meq/L
LDH ([…], time 14 day): 94.8 IU/L
Na ([…], time 14 day): 140.2 meq/L
PL ([…], time 14 day): 166 mg/dL
RALB ([…], time 14 day): 4.1 g/dL
TBIL ([…], time 14 day): 0.3 mg/dL
TC ([…], time 14 day): 77.2 mg/dL
TG ([…], time 14 day): 136 mg/dL
TP ([…], time 14 day): 6.1 g/dL
gamma-GTP ([…], time 14 day): 2.4 IU/L
A/G ([…], time 28 day): 1.7
ALP ([…], time 28 day): 637.8 IU/L
ALT ([…], time 28 day): 61.4 IU/L
AST ([…], time 28 day): 115.8 IU/L
BUN ([…], time 28 day): 19.6 mg/dL
CRE ([…], time 28 day): 0.4 mg/dL
Ca ([…], time 28 day): 11.1 mg/dL
Cl ([…], time 28 day): 106.8 meq/L
DBIL ([…], time 28 day): 0.054 mg/dL
GLC ([…], time 28 day): 186.6 mg/dL
IP ([…], time 28 day): 6.3 mg/dL
K ([…], time 28 day): 4.5 meq/L
LDH ([…], time 28 day): 163 IU/L
Na ([…], time 28 day): 139.8 meq/L
PL ([…], time 28 day): 192.4 mg/dL
RALB ([…], time 28 day): 4.1 g/dL
TBIL ([…], time 28 day): 0.3 mg/dL
TC ([…], time 28 day): 106.6 mg/dL
TG ([…], time 28 day): 85.4 mg/dL
TP ([…], time 28 day): 6.5 g/dL
gamma-GTP ([…], time 28 day): 3.6 IU/L
